The source made the active and inactive calls.
Experiments:
[1] = MC4R antagonists, dose response, counter-screen for LGR2 antagonist project, cell-based, plate reader, cherry pick (AID 743444); assay type: functional;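 also: transfected HEK 293 cells stimulated with alpha-MSH peptide; potency of inhibitors of the alpha-MSH evoked signal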
[2] = A549 cell cytotoxicity, dose response, cytotoxicity control, plate reader, cherry-pick, antagonist series (AID 743412); assay type: functional, cell-based
[3] = LGR2 antagonists, dose response, cell-based, HEK293, CRE-luciferase reporter, cherry pick, set 2 (AID 743343); assay type: functional;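 also: transfected cells were stimulated with diluted bursicon conditioned medium after compound addition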
[4] = HepG2 cell cytotoxicity, dose response, cytotoxicity control, plate reader, cherry-pick, antagonist series (AID 743416); assay type: functional, cell-based
[5] = biological target: Disintegrin and metalloproteinase domain-containing protein 17 (Homo sapiens, UniProt P78536); experiment: exosite inhibitors of ADAM17, dose response, biochemical (AID 743260)
Disintegrin and metalloproteinase domain-containing protein 17, sequence (P78536 whole entry, the tested form may be a part): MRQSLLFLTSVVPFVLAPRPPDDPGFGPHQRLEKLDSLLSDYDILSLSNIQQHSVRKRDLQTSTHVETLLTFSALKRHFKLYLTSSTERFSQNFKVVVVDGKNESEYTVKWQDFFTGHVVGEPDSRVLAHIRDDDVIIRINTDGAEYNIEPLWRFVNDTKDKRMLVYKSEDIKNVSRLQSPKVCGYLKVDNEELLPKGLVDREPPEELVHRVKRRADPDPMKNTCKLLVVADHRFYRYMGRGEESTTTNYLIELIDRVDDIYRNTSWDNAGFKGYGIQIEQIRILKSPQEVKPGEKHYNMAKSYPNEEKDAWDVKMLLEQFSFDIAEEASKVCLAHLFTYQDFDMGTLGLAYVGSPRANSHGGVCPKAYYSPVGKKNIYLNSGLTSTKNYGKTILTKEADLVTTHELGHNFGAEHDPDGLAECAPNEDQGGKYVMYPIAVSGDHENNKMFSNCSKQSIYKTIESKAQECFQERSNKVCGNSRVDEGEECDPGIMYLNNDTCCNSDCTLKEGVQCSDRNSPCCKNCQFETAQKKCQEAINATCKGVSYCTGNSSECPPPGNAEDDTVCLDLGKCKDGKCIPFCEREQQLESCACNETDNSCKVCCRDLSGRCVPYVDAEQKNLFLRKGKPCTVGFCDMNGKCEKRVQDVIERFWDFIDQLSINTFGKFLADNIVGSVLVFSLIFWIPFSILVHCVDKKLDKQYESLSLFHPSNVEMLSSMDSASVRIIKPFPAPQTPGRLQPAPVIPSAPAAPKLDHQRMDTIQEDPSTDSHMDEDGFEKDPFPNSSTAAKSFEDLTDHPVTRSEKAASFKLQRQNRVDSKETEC

[6] = ADAM10 protease inhibitors, dose response, selectivity assay for ADAM17 exosite inhibitor project, biochemical, FRET peptide substrate, recombinant human ADAM10 (AID 743259);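 also: ADAM10 enzyme cleaving a FRET peptide substrate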
[7] = NIH:OVCAR-3 ovarian cancer cell cytotoxicity, dose response, PAX8 inhibitor project, plate reader, dry powder samples (AID 743044); assay type: functional, cell-based
Paired box protein Pax-8 = Paired box protein Pax-8 (Homo sapiens, UniProt Q06710); experiment: inhibitors of PAX8-driven TPO luciferase reporter, dose response, RMG-I cells, cherry-pick (AID 687027); assay type: functional, cell-based;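 also: luciferase reporter driven by Pax8 target thyroperoxidase promoter measured by SteadyGlo luminescence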
Paired box protein Pax-8, sequence (Q06710 whole entry, the tested form may be a part): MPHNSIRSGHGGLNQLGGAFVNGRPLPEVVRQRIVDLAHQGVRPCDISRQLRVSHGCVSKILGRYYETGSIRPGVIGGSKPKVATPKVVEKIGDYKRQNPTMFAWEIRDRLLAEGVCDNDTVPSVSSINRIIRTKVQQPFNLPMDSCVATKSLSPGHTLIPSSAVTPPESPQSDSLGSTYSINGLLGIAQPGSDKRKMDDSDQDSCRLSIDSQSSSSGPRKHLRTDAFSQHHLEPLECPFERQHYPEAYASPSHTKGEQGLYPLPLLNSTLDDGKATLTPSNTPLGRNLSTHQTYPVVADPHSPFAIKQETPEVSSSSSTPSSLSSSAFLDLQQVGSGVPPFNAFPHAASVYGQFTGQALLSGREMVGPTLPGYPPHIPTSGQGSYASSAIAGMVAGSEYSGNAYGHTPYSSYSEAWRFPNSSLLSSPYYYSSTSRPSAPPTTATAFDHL

[8] = biological target: T1, Oxysterols receptor LXR-beta (Homo sapiens, UniProt P55055); experiment: LXR agonists, Gal4 luciferase reporter, dose response, counter-screen for ssDAF-12 agonist project, cell-based, luminescence, HEK293, S. stercoralis campaign (AID 720737); assay type: functional; details: read-out: IC50 (the source's name)
T1 sequence (P55055 whole entry): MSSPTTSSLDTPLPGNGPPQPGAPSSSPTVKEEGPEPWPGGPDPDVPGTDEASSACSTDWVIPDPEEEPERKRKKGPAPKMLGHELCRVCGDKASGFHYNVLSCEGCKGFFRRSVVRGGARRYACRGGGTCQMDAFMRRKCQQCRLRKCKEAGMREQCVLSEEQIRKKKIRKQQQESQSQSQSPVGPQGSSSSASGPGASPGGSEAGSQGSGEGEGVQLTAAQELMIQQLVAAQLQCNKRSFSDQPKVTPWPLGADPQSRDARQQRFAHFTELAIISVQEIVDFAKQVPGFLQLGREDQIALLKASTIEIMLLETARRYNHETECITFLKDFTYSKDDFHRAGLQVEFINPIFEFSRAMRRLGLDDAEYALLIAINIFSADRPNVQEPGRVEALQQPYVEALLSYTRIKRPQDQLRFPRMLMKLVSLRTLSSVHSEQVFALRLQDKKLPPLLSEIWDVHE

[9] = Luminescence-based cell-based high throughput dose response assay to identify activators of the DAF-12 from the parasite S. stercoralis (ssDAF-12).; assay type: functional
Genome polyprotein = Genome polyprotein (dengue virus type 2, UniProt P29990); experiment: Dengue-2 NS5 methyltransferase inhibitors, primary screen, biochemical, confirmation dose response (AID 588689); assay type: functional
Genome polyprotein, sequence (P29990 2492-3391 limits assumed): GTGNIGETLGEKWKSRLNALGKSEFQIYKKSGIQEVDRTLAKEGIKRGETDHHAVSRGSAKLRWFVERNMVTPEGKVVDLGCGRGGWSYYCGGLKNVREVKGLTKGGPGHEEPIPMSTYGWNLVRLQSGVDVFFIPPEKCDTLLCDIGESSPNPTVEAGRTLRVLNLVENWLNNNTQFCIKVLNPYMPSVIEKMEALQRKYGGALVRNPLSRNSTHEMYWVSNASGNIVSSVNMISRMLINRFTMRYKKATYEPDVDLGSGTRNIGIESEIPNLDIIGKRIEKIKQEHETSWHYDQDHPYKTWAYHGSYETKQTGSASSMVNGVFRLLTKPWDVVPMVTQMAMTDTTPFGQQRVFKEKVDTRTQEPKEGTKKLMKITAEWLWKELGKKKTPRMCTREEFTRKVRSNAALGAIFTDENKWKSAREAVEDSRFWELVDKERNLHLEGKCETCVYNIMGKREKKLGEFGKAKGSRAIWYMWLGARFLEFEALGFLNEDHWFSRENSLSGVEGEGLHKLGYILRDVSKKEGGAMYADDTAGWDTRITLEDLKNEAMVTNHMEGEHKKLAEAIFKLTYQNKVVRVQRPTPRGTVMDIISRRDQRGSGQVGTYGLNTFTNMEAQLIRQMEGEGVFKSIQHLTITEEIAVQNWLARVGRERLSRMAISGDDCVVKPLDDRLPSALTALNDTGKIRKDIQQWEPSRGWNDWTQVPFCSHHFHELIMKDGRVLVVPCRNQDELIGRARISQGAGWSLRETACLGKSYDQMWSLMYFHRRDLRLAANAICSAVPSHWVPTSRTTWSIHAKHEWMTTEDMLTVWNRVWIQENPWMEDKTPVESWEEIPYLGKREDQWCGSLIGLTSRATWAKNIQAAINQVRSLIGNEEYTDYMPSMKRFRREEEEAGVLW

[10] = biological target: T2, Polyadenylate-binding protein 1 (Homo sapiens, UniProt P11940); experiment: PABP1 MLLE–PAM2 interaction inhibitors, dose response, miRNA deadenylation inhibitor project, biochemical, fluorescence polarization, Cy5-PAM2 peptide, secondary (AID 602260); assay type: functional; details: read-out: IC50_Mean
T2 sequence (P11940 whole entry): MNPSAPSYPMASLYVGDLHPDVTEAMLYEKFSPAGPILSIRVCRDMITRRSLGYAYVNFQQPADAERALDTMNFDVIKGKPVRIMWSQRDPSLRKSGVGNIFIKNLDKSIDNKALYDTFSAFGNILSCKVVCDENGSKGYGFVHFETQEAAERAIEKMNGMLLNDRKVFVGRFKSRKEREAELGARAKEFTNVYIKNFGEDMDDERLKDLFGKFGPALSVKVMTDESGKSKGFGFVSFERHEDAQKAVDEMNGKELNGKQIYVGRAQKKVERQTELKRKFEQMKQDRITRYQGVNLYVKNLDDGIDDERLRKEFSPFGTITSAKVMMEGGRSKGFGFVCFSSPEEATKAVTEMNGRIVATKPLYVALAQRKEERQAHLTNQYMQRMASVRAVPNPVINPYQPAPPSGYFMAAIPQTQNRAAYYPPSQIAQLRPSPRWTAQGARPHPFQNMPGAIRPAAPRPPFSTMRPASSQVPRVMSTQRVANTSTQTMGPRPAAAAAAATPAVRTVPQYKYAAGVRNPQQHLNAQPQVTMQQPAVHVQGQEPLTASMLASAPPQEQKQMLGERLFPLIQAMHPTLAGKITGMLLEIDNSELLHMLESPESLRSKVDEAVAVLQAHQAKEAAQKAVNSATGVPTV

Large T antigen = Large T antigen (Simian virus 40, UniProt P03070); assay type: functional, Betapolyomavirus macacae;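 also: Confirmatory-stage PubChem screen for compounds that inhibit SV40 T antigen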
Large T antigen, sequence (P03070 whole entry): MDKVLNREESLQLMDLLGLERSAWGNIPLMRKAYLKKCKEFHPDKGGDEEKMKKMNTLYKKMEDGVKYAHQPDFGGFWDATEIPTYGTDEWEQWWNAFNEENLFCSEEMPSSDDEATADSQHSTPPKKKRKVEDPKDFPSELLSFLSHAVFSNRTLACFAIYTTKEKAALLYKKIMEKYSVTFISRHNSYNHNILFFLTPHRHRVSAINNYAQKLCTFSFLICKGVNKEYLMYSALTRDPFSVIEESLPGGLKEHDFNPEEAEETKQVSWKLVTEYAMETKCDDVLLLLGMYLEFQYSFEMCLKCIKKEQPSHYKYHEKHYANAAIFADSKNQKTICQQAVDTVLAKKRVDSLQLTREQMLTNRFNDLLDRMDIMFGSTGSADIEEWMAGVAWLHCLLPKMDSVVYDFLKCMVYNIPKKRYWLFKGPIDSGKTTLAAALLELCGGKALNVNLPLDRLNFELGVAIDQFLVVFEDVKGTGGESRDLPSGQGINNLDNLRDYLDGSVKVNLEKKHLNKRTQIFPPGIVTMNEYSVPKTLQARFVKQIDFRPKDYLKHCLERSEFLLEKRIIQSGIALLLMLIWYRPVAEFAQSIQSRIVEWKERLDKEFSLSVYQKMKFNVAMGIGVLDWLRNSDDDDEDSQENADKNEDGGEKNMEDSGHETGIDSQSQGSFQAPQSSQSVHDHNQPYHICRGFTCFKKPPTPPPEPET

[11] = biological target: T3, Bifunctional protein GlmU (Mycobacterium tuberculosis, UniProt P9WMN3); experiment: Inhibitors of Mycobacterial Glucosamine-1-phosphate acetyl transferase (GlmU). Secondary screen.; set-up: species or system Mycobacterium tuberculosis H37Rv
T3 sequence (P9WMN3 whole entry): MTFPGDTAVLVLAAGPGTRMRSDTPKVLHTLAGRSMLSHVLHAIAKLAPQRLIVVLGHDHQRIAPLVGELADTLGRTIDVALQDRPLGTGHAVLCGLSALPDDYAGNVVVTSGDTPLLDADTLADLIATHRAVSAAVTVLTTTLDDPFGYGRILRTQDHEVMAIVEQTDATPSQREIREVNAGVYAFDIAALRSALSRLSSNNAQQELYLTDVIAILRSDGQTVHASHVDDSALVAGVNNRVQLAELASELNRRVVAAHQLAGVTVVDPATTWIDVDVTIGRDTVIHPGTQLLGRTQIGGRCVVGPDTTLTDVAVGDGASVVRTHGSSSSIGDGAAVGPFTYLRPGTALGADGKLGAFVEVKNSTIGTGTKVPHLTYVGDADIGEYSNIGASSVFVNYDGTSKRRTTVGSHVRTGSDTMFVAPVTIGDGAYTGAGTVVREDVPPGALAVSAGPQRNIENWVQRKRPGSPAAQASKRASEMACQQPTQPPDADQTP

[12] = biological target: T2, Polyadenylate-binding protein 1; experiment: PABP1 MLLE–PAM2 binding inhibitor potency, dose response, biochemical, fluorescence polarization, FITC-PAM2 peptide (AID 602259); assay type: functional; details: read-out: IC50_Mean
Prothrombin = Prothrombin (Homo sapiens, UniProt P00734); experiment: Thrombin 1536 HTS Dose Response Confirmation. [Related pubchem assays: 1046 (Thrombin 1536 HTS; hits were confirmed in this assay)]; assay type: functional

O=C(O)c1cccc(-c2nc3ccccc3[nH]2)c1
AC50 [1]: 1.5 µM (active)
AC50 [2]: > 52 µM (inactive)
AC50 [3]: 1.54 µM (active)
AC50 [4]: > 52 µM (inactive)

CCCn1c(CCNc2nc(-c3cccc(Br)c3)cs2)nc2ccccc21
IC50 [5]: > 69.6 µM (inactive)
IC50 [6]: > 69.6 µM (inactive)

COCC(=O)N1CCCCN2[C@H](C1)[C@@H](c1ccc(-c3ccc(C)cc3)cc1)[C@@H]2CO
AC50 [7]: 56.3 µM (active)
AC50 (Paired box protein Pax-8): 58.9 µM (active)

Cc1onc(-c2ccccc2)c1C(=O)OCC(=O)c1ccc(F)cc1
EC50 [8]: > 67.5 µM (inactive)
IC50 [9]: > 67.5 µM (inactive)

O=C(O)c1ccc(Nc2cc(Cl)c3nonc3c2[N+](=O)[O-])cc1
IC50 (Genome polyprotein): 12 µM (active)
IC50 [10]: > 66 µM (inactive)
IC50 (Large T antigen): 76.6 µM (active)
IC50 [11]: 92 µM (active)
IC50 [12]: > 66 µM (inactive)

Sc1n[nH]c(-c2sccc2OCc2ccc(Cl)cc2Cl)n1
IC50 [6]: > 69.5 µM (inactive)

CCOc1ccc(NC(=O)C(C)O)c(NS(=O)(=O)c2ccc(CCNC(C)=O)cc2)c1 (configuration not stated)
IC50 (Prothrombin): > 50 µM (not active)

Source: ChEMBL document CHEMBL1201862, “PubChem BioAssay data set” (2004)
